From patent US20130102752A1, “BENZINDOCYANINE COMPOUND FOR LABELING SUBSTANCE, INTERMEDIATE THEREOF, AND METHOD FOR PREPARING THE SAME” (DKC CORPORATION, priority 2010, published 2013)

Legend:
[1] = Emission wavelength at maximum emission (Perkin Elmer LS-55); format: physicochemical
Experimental: (§1) First, the experimental apparatuses, analytical instruments and reagents used in the examples and experiments are described. Bruker's Avance 300 and 400 were used for FT-NMR spectroscopy, and the Voyager MALDI-TOF DE mass spectrometer was used for MALDI-TOF M/S. Absorption wavelength of the synthesized dye and the absorbance at maximum absorption wavelength were measured using Hewlett-Packard's HP 8452 diode array spectrophotometer. Emission wavelength and light emission at maximum emission wavelength were measured using Perkin Elmer's LS-55.

[2] = Absorption wavelength of the synthesized dye (HP 8452 diode array spectrophotometer); format: physicochemical
Experimental: as §1

[3] = system: marker proteins (Amersham LMW calibration kit: phosphorylase b, albumin, ovalbumin, carbonic anhydrase, trypsin inhibitor, α-lactalbumin); assay: Staining of proteins, separated by gel electrophoresis, fluorescence image; details: 0.1M phosphate buffer pH 9.0, room temperature, 1 hour; electrophoresis 125 V, 2 hours
Experimental: Gel electrophoresis was carried out using Bio-Rad's PowerPac Basic Power Supply (Catalog No. 164-5050) coupled to the Amersham Biosciences's SE260 mini-vertical gel electrophoresis unit. Lonza's PAGEr Gold Precast Gels (polyacrylamide gels for protein electrophoresis, 10-20% Tris-glycine gels, Catalog No. 59506) were used as gels. Running and loading buffers for SDS-PAGE were prepared as follows prior to use.
Size markers commercially available from GE Healthcare and Takara were used as proteins. Perkin Elmer's Geliance 600 was used for observation of labeled biomolecules and measurement of fluorescence intensity. Geliance UV Epi (Catalog No. L7110026) and Geliance Blue Epi (Catalog No. L7110027) were used as light sources. Measurement was carried out using UV filter, Geliance short-pass filter (500-600 nm), Geliance long-pass filter (580-660 nm) and Geliance blue light filter (550-600 nm) while changing the filters in accordance with fluorescence wavelengths.
Each vial of one pack of Amersham™ LMW calibration kit (17-0446-01) for SDS electrophoresis commercially available from GE Healthcare contains 576 μg of six marker proteins, which are phosphorylase b (97 kD, 67 μg), albumin (66 kD, 83 μg), ovalbumin (45 kD, 147 μg), carbonic anhydrase (30 kD, 83 μg), trypsin inhibitor (20.1 kD, 80 μg) and α-lactalbumin (14.4 kD, 116 μg). […]

Structure (SMILES) | λfl (methanol) [1] [nm] | λabs (methanol) [2] [nm] | visibility of stained proteins after gel electrophoresis (FIG. 1) [3] | λfl (water) [1] [nm] | λabs (water) [2] [nm]
C=CS(=O)(=O)CCNC(=O)CCCCCN1/C(=C/C=C/C=C/C2=[N+](CC)c3ccc4ccccc4c3C2(C)C)C(C)(C)c2c1ccc1ccccc21 [Compound 1-4] | 710 | 680 |  |  | 
C=CS(=O)(=O)CCNC(=O)CCCCCN1/C(=C/C=C/C=C/C2=[N+](CC)c3ccc4c(S(=O)(=O)[O-])cc(S(=O)(=O)O)cc4c3C2(C)C)C(C)(C)c2c1ccc1c(S(=O)(=O)O)cc(S(=O)(=O)O)cc21 [Compound 1-1] |  |  | discernible with naked eyes | 695 | 675
CC[N+]1=C(/C=C/C=C/C=C2/N(CCCCCCCC(=O)O)c3ccc4c(S(=O)(=O)O)cc(S(=O)(=O)O)cc4c3C2(C)C)C(C)(C)c2c1ccc1c(S(=O)(=O)O)cc(S(=O)(=O)[O-])cc21 [Compound 10-5] |  |  |  | 704 | 675
C=CS(=O)(=O)CCNC(=O)CCCCCN1/C(=C/C=C/C2=[N+](CC)c3ccc4c(S(=O)(=O)[O-])cc(S(=O)(=O)O)cc4c3C2(C)C)C(C)(C)c2c1ccc1c(S(=O)(=O)O)cc(S(=O)(=O)O)cc21 [Compound 1-3] |  |  |  | 594 | 579
CC[N+]1=C(/C=C/C=C2/N(CCCCCC(=O)O)c3ccc4c(S(=O)(=O)O)cc(S(=O)(=O)O)cc4c3C2(C)C)C(C)(C)c2c1ccc1c(S(=O)(=O)[O-])cc(S(=O)(=O)O)cc21 |  |  |  | 594 | 579
C=CS(=O)(=O)CCNC(=O)CCCCCN1/C(=C/C=C/C=C/C=C/C2=[N+](CC)c3ccc4c(S(=O)(=O)[O-])cc(S(=O)(=O)O)cc4c3C2(C)C)C(C)(C)c2c1ccc1c(S(=O)(=O)O)cc(S(=O)(=O)O)cc21 [Compound 1-2] |  |  | discernible with naked eyes | 803 | 777
CC[N+]1=C(/C=C/C=C/C=C/C=C2/N(CCCCCC(=O)O)c3ccc4c(S(=O)(=O)O)cc(S(=O)(=O)O)cc4c3C2(C)C)C(C)(C)c2c1ccc1c(S(=O)(=O)[O-])cc(S(=O)(=O)O)cc21 [Compound 10-3] |  |  |  | 803 | 777
CC[N+]1=C(/C=C/C=C/C=C2/N(CCCCCC(=O)O)c3ccc4ccccc4c3C2(C)C)C(C)(C)c2c1ccc1ccccc21 [Compound 10-4] | 713 | 697 |  |  | 
CC[N+]1=C(/C=C/C=C/C=C2/N(CCCCCC(=O)O)c3ccc4c(S(=O)(=O)O)cc(S(=O)(=O)O)cc4c3C2(C)C)C(C)(C)c2c1ccc1c(S(=O)(=O)[O-])cc(S(=O)(=O)O)cc21 [Compound 10-1] |  |  |  | 695 | 675
C=CS(=O)(=O)CCNC(=O)CCCCCCCN1/C(=C/C=C/C=C/C2=[N+](CC)c3ccc4c(S(=O)(=O)O)cc(S(=O)(=O)[O-])cc4c3C2(C)C)C(C)(C)c2c1ccc1c(S(=O)(=O)O)cc(S(=O)(=O)O)cc21 [Compound 1-5] |  |  |  | 704 | 675
